Laboratory results reported in ChEMBL document CHEMBL1201862, “PubChem BioAssay data set” (2004).
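Where inhibition never reached the appropriate level, the endpoint shown equals the highest concentration tested. Otherwise, values were interpolated linearly from a five-concentration, 48-hour dose response in 96-well plates. At the GI50, growth is halved.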 Activity calls are given as the source filed them. No stated cut-off is given here; in the data, active = GI50 up to about 1.1 µM and inactive = higher. Square brackets hold non-standard residues; d marks the D form. Peptide text beside a SMILES is read from it. * marks the point of attachment. NMeV = CN[C@H](C(=O)O)C(C)C; X28 = COc1ccc(CN*)c(OC)c1; Octanoyl = CCCCCCCC(=O)*; dNMeA = CN[C@H](C)C(=O)O

Columns and labels:
Assay in all cases: NCI tumour cell line growth inhibition, 48 h
786-0 = tested on: 786-0
ACHN = tested on: ACHN
COLO 205 = tested on: COLO 205
HCC 2998 = tested on: HCC 2998
K562 = tested on: K562
LOX IMVI = tested on: LOX IMVI
M14 = tested on: M14
MDA-N = tested on: MDA-N
NCI/ADR-RES = tested on: NCI/ADR-RES
OVCAR-8 = tested on: OVCAR-8
RPMI-8226 = tested on: RPMI-8226
SF-539 = tested on: SF-539
SK-MEL-28 = tested on: SK-MEL-28
SNB-19 = tested on: SNB-19
UACC-257 = tested on: UACC-257
UACC-62 = tested on: UACC-62
UO-31 = tested on: UO-31
CAKI-1 = tested on: CAKI-1
HOP-92 = tested on: HOP-92
T47D = tested on: T47D

SMILES | GI50 (786-0) | GI50 (ACHN) | GI50 (COLO 205) | GI50 (HCC 2998) | GI50 (K562) | GI50 (LOX IMVI) | GI50 (M14) | GI50 (MDA-N) | GI50 (NCI/ADR-RES) | GI50 (OVCAR-8) | GI50 (RPMI-8226) | GI50 (SF-539) | GI50 (SK-MEL-28) | GI50 (SNB-19) | GI50 (UACC-257) | GI50 (UACC-62) | GI50 (UO-31) | GI50 (CAKI-1) | GI50 (HOP-92) | GI50 (T47D)
O=C(CCCN1CCC(Nc2ccccc2)(c2nnnn2C2CCCCC2)CC1)c1ccc(F)cc1 | 3.89 µM (inactive) | 4.58 µM (inactive) | 2.24 µM (inactive) | 3.29 µM (inactive) | 13 µM (inactive) | 3.81 µM (inactive) | 1.99 µM (inactive) | 5.28 µM (inactive) | 21 µM (inactive) | 13.1 µM (inactive) | 3.48 µM (inactive) | 2.25 µM (inactive) | 3.79 µM (inactive) | 9.64 µM (inactive) | 2.52 µM (inactive) | 11.7 µM (inactive) | 3.78 µM (inactive) |  |  | 
O=C1c2ccsc2C(=O)c2sc(CO)cc21 | 0.385 µM (active) | 0.0681 µM (active) | 0.817 µM (active) | 3.52 µM (inactive) | 0.237 µM (active) | < 0.0176 µM (active) | < 0.0123 µM (active) | < 0.0133 µM (active) | 0.0845 µM (active) | 0.113 µM (active) | 0.22 µM (active) | 0.0469 µM (active) | 0.0307 µM (active) | 0.0929 µM (active) | 0.0456 µM (active) | 0.0553 µM (active) | 0.134 µM (active) | 6.47 µM (inactive) | 0.333 µM (active) | 
CC(=O)OI1NC(=O)c2ccccc21 | > 100 µM (inactive) | > 100 µM (inactive) | > 100 µM (inactive) |  | > 100 µM (inactive) | > 100 µM (inactive) | > 100 µM (inactive) | > 100 µM (inactive) | > 100 µM (inactive) | > 100 µM (inactive) | > 100 µM (inactive) |  | > 100 µM (inactive) | > 100 µM (inactive) |  | > 100 µM (inactive) | > 100 µM (inactive) |  | > 100 µM (inactive) | 
O=C(O)C12CCC(CC1=O)C2 (stereo not drawn) | > 100 µM (inactive) | > 100 µM (inactive) | > 100 µM (inactive) |  | > 100 µM (inactive) | > 100 µM (inactive) | > 100 µM (inactive) |  | > 100 µM (inactive) | > 100 µM (inactive) | > 100 µM (inactive) |  | > 100 µM (inactive) | > 100 µM (inactive) | > 100 µM (inactive) | > 100 µM (inactive) | > 100 µM (inactive) | > 100 µM (inactive) | > 100 µM (inactive) | > 100 µM (inactive)
CCOC(=O)C1=C(O)C(=O)c2cc(OC)ccc2C1=O | > 100 µM (inactive) | > 100 µM (inactive) | > 100 µM (inactive) | > 100 µM (inactive) | > 100 µM (inactive) | 55.2 µM (inactive) | > 100 µM (inactive) |  |  | > 100 µM (inactive) | > 100 µM (inactive) | 65.9 µM (inactive) | > 100 µM (inactive) | 38.9 µM (inactive) | 35.1 µM (inactive) | > 100 µM (inactive) | 63 µM (inactive) | > 100 µM (inactive) | > 100 µM (inactive) | 
COc1ccc(/C(Cl)=C(\C=O)c2ccc(Br)cc2)cc1OC | 27.7 µM (inactive) | > 72.6 µM (inactive) | > 100 µM (inactive) | > 100 µM (inactive) | > 61 µM (inactive) | 18.3 µM (inactive) | > 100 µM (inactive) |  |  | 31.9 µM (inactive) | 3.69 µM (inactive) | 26.1 µM (inactive) | > 100 µM (inactive) | 26.3 µM (inactive) | > 100 µM (inactive) | 33.7 µM (inactive) | > 100 µM (inactive) | > 100 µM (inactive) | 17.7 µM (inactive) | 
OC1CC(O)O[C@H](c2ccccc2)C1 (stereo partly drawn) | > 100 µM (inactive) | > 100 µM (inactive) | > 100 µM (inactive) | > 100 µM (inactive) | > 100 µM (inactive) | > 100 µM (inactive) | > 100 µM (inactive) |  |  | 85.3 µM (inactive) | > 100 µM (inactive) | > 100 µM (inactive) | > 100 µM (inactive) | > 100 µM (inactive) | > 100 µM (inactive) | > 100 µM (inactive) | > 100 µM (inactive) | > 100 µM (inactive) | > 100 µM (inactive) | 
COc1cc2c3c(c1OC)C(=O)C=C3N(S(=O)(=O)c1ccc(C)cc1)CC2 | 21.3 µM (inactive) | 75.9 µM (inactive) | > 100 µM (inactive) | > 100 µM (inactive) | > 100 µM (inactive) | > 100 µM (inactive) | > 100 µM (inactive) |  |  | > 100 µM (inactive) | > 100 µM (inactive) | 52.7 µM (inactive) | > 100 µM (inactive) | > 100 µM (inactive) | > 100 µM (inactive) | > 100 µM (inactive) | > 100 µM (inactive) | 52.6 µM (inactive) | > 100 µM (inactive) | 
N#CC(C#N)=c1c2ccccc2c(=C(C#N)C#N)c2ccccc12 | 14.9 µM (inactive) | 20 µM (inactive) | 21.2 µM (inactive) |  | 19.9 µM (inactive) | 17.8 µM (inactive) | 17.4 µM (inactive) | 18.7 µM (inactive) | 25.6 µM (inactive) | 20.1 µM (inactive) | 23.6 µM (inactive) |  | 17.7 µM (inactive) | 14.6 µM (inactive) | 23.1 µM (inactive) | 13.2 µM (inactive) |  | 14.9 µM (inactive) | 32.9 µM (inactive) | 
CCCCCCCC(=O)N[C@H](C(=O)N[C@H](C(=O)N(C)[C@H](C(=O)N1CCC[C@H]1C(=O)N(C)[C@H](C)C(=O)NCc1ccc(OC)cc1OC)C(C)C)C(C)C)C(C)C (Octanoyl-VV[NMeV]P[dNMeA]-X28) | 23.2 µM (inactive) | 5.26 µM (inactive) | 5.74 µM (inactive) | 13.4 µM (inactive) | 5.62 µM (inactive) | 12.2 µM (inactive) | 7.82 µM (inactive) |  | 42.1 µM (inactive) | 5.58 µM (inactive) | 3.02 µM (inactive) | 18.8 µM (inactive) | 8.77 µM (inactive) | 12.7 µM (inactive) | 5.21 µM (inactive) | 7.21 µM (inactive) | 17.6 µM (inactive) | 16.4 µM (inactive) | 7.6 µM (inactive) | 4.29 µM (inactive)
CCOc1ccc2nc(NC(=O)C(=O)C(C#N)CC(C)(C)C=O)sc2c1 (stereo not drawn) | > 100 µM (inactive) | > 100 µM (inactive) | > 100 µM (inactive) | > 100 µM (inactive) | 52.7 µM (inactive) | 44.2 µM (inactive) | > 100 µM (inactive) |  |  | > 100 µM (inactive) | 75.3 µM (inactive) | 75.7 µM (inactive) | > 100 µM (inactive) | > 100 µM (inactive) | > 100 µM (inactive) | > 100 µM (inactive) | > 100 µM (inactive) | > 100 µM (inactive) | > 100 µM (inactive) | 
C[N+]1(C)C/C(=C\c2ccc(O)cc2)C(=O)/C(=C/c2ccc(O)cc2)C1 | > 100 µM (inactive) | > 100 µM (inactive) | 47.1 µM (inactive) | > 100 µM (inactive) |  | 56.8 µM (inactive) | > 100 µM (inactive) |  |  | 48.2 µM (inactive) | 44.7 µM (inactive) | 65 µM (inactive) | > 100 µM (inactive) | > 100 µM (inactive) | > 100 µM (inactive) | 64.9 µM (inactive) | > 100 µM (inactive) | > 100 µM (inactive) | > 100 µM (inactive) | 
Cc1c2cc[n+](C)cc2c(C)c2c1[nH]c1ccc(Oc3ccccc3)cc12 | 0.504 µM (active) | 2.05 µM (inactive) | 1.1 µM (active) | 2.61 µM (inactive) | 0.383 µM (active) | 2.09 µM (inactive) | 4.48 µM (inactive) |  |  | 0.553 µM (active) | 1.62 µM (inactive) | 1.88 µM (inactive) | 3.28 µM (inactive) | 0.67 µM (active) | 1.18 µM (inactive) | 1.51 µM (inactive) | 7.29 µM (inactive) | 1.89 µM (inactive) | 1.28 µM (inactive) | 
CC(C)N(C(=O)C12C3C4C1C1C4(C#N)C3C12C(=O)O)C(C)C (stereo not drawn) | > 100 µM (inactive) | > 100 µM (inactive) | > 100 µM (inactive) | > 100 µM (inactive) | > 69.8 µM (inactive) | > 93.8 µM (inactive) | > 100 µM (inactive) |  |  | > 86.9 µM (inactive) | > 43.1 µM (inactive) | > 100 µM (inactive) | > 100 µM (inactive) | > 100 µM (inactive) | > 100 µM (inactive) | > 100 µM (inactive) | > 100 µM (inactive) | > 100 µM (inactive) | > 100 µM (inactive) | 
CC(C)(C)/C(O)=C\c1nc2cc(F)c(F)cc2[nH]c1=O | > 100 µM (inactive) | > 100 µM (inactive) | > 100 µM (inactive) | > 100 µM (inactive) | > 100 µM (inactive) | > 100 µM (inactive) | > 100 µM (inactive) |  | > 100 µM (inactive) | > 100 µM (inactive) |  | > 100 µM (inactive) | > 100 µM (inactive) | > 100 µM (inactive) | > 100 µM (inactive) | > 100 µM (inactive) | > 100 µM (inactive) | > 100 µM (inactive) | > 100 µM (inactive) | > 100 µM (inactive)
C#CCSc1nc(N)c2ncn(C3OC(COP(=O)(O)O)C(O)C3O)c2n1 (stereo not drawn) | > 239 µM (inactive) | > 239 µM (inactive) | > 239 µM (inactive) | > 239 µM (inactive) | > 239 µM (inactive) | > 239 µM (inactive) | > 239 µM (inactive) |  |  | > 239 µM (inactive) | > 239 µM (inactive) | > 239 µM (inactive) | > 239 µM (inactive) | > 239 µM (inactive) | > 239 µM (inactive) | > 239 µM (inactive) | > 239 µM (inactive) | > 239 µM (inactive) | > 239 µM (inactive) | 
